Source: patent publication US8158621B2, “Methods of treating or preventing autoimmune diseases with 2,4-pyrimidinediamine compounds” (Rigel Pharmaceuticals, Inc., priority 2002, dated 2012)
pIC50: −log10 of the molar value. Values belong to the compound of their own block, whether it stands above or below them.

Assays:
[1] = test system: B-cell line BJAB; assay: BJAB (B-cell) toxicity, light scatter; type: cell-based; details: read-out: Toxicity BJAB Light Scat.
Method: The B-cell line BJAB was cultured in log phase in RPMI1640+10% heat-inactivated fetal bovine serum, 1× L-glutamine, 1× penicillin, 1× […] and 1× beta-mercaptoethanol at 37° C., 5% CO2. First, BJABs were harvested, spun and resuspended in culture medium to a concentration of 7.7×10^5 cells/mL. 65 uL cells were mixed with 65 uL compound, in duplicate and in the presence of 0.1% DMSO in a V-bottomed 96-well tissue culture plate. Cells were incubated with compound at various dilutions at 37° C., 5% CO2. Toxicity was assessed by flow cytometric analysis of cellular light scatter.

[2] = test system: bone marrow derived mast cells (BMMC); assay: BMMC high cell density IgE activation: histamine; type: cell-based, mouse; details: High Density; read-out: BMMC anti-IgE histamine
Method: (§1) After sensitizing, cells are counted, pelleted (1000 rpm, 5-10 minutes), and resuspended at 1-3×10^6 cells/ml in MT buffer. Add 100 ul of cell suspension to each well and 100 ul of compound dilutions. The final vehicle concentration is 0.5% DMSO. Incubate at 37° C. (5% CO2) for 1 hour. After 1 hour of compound treatment, stimulate cells with 6× stimulus (60 ng/ml DNP-BSA). Mix wells with the cells and allow plates to incubate at 37° C. (5% CO2) for one hour. After 1 hour incubation, pellet cells (10 minutes, 1000 RPM) and collect 200 ul per well of the supernatant, being careful not to disturb pellet, and transfer to a clean tube or 96-well plate. Place the supernatant plate on ice. During the 4-5 hour step (see next) perform the hexosiminidase assay. Resuspend cell pellet in 240 ul WEI-conditioned media containing 0.5% DMSO and corresponding concentration of compound. Incubate BMMC cells for 4-5 hours at 37° C. (5% CO2). After incubation, pellet cells (1000 RPM, 10 minutes) and collect 225 ul per well and place in −80° C. until ready to perform ELISAS. ELISAS are performed on appropriately diluted samples (determined empirically for each donor cell population so that the sample measurement falls within the standard curve) following the supplier's instructions.

[3] = test system: bone marrow derived mast cells (BMMC); assay: BMMC high cell density IgE activation: LTC4; type: cell-based, mouse; details: High Density; read-out: BMMC anti-IgE LTC4
Method: as §1

[4] = test system: CHMC cells; assay: ionomycin-induced Ca2+ flux in CHMC cells; type: cell-based, human; details: 10 μM
[5] = Non-clinical safety studies of R921218 (summary); set-up: species or system rodents and non-rodents; details: in vivo
Text: A short discussion of key toxicology studies is provided.

[6] = test system: Syk kinase; assay: Phosphorylation of proteins downstream of Syk kinase in IgE receptor-activated BMMC cells; type: cell-based, mouse; details: activated mast cells (BMMC)
Method: For the assay, BMMC cells were incubated in the presence of varying concentrations of test compound (0.08 μM, 0.4 μM, 2 μM and 10 μM) for 1 hr at 37° C. The cells were then stimulated with anti-IgE antibody as previously described. After 10 min, the cells were lysed and the cellular proteins separated by electrophoresis (SDS PAGE).
(§2) Following electrophoresis, the phosphorylation of the proteins indicated in FIGS. 7, 10 and 11A-D were assessed by immunoblot. Antibodies were purchased from Cell Signaling Technology, Beverley, Mass.

[7] = test system: Syk kinase; assay: Phosphorylation of proteins in the FcεRI cascade in activated CHMC cells; type: cell-based, human; details: activated CHMC cells, varying concentrations (FIG. 10)
Method: as §2

[8] = test system: differentiated human macrophages; assay: Macrophage activation, IgG stimulation: TNF; type: cell-based; details: stimulus (IgG or LPS) not given; read-out: Monocytes/Macrophage TNF IC50
Method: Purity was assessed by measuring the percentage of CD14+ cells by flow cytometry.
A negative control consisting of the F(ab′)2 fragment was also coated to assess background stimulation. Unbound antibody was washed away 2× with 200 ul PBS. […] The cells were incubated for 16 hr in a 37° C. incubator, and supernatants were collected for Luminex analysis for IL-6 and TNFα, essentially as described for the primary T-cells, above.

[9] = Pilot dose finding studies (oral); type: in vivo
[10] = in vitro chromosomal aberration assay
[11] = test system: Salmonella-Escherichia coli tester strains; details: for Ames test, tester strain TA1537: with and without metabolic activation
[12] = Non-GLP pilot oral toxicity studies in the mouse
Method: Several non-GLP pilot toxicity studies have been conducted in rodents. […] In a 14-day oral toxicity study in the mouse was conducted with doses of 100, 300 and 1000 mg/kg.

[13] = Rat collagen-induced arthritis (CIA); type: in vivo, LOU rats; details: for Blinded radiographic scores (scale 0-6): Day 28
Method: In both protocols, clinical scores were obtained daily, and body weights are measured twice weekly. At Day 28, radiographic scores were obtained, and scrum levels of collagen II antibody were measured by ELISA.

Compound: COc1ccc(Nc2ncc(F)c(Nc3cccc(O)c3)n2)cc1OC [Compound R926113]
pIC50 [1]: < 5.00

Compound: COc1ccc(Nc2ncc(F)c(Nc3ccc(OC)c(OC)c3)n2)cc1OC [Compound R926110]
pIC50 [1]: < 5.00

Compound: Fc1cnc(Nc2ccc3c(c2)OCCO3)nc1Nc1ccc2c(c1)OCCO2 [Compound R926109]
pIC50 [1]: < 5.00

Compound: Oc1cccc(Nc2ncc(F)c(Nc3cccc(O)c3)n2)c1 [Compound R921218]
pIC50 [2]: 6.69
pIC50 [3]: 6.12
pIC50 [1]: < 5.00
ionomycin-induced Ca2+ flux [4]: no effect
genetic toxicology testing [5]: no evidence for mutagenic or elastogenic potential
phosphorylation of Syk kinase substrates and proteins downstream of Syk kinase [6]: inhibit phosporylation of various proteins downstream of Syk kinase
phosphorylation of proteins downstream of Syk kinase, but not LYN kinase, in the FcεRI signal transduction cascade [7]: inhibit phosphorylation of proteins downstream of Syk kinase, but not LYN kinase

pIC50 [8]: 6.88
Compound: CC1(C)Oc2ccc(Nc3nc(Nc4ccc5cn[nH]c5c4)ncc3F)cc2NC1=O [Compound R940363]

Compound: CNC(=O)COc1cccc(Nc2ncc(F)c(Nc3ccc4c(c3)NCCO4)n2)c1 [Compound R921219]
doses not tolerated ([9]; multiple (7-day) doses): ≥ 200 mg/kg/day
NOEL (no observed effect level) ([9]; single oral dose): 600 mg/kg
clastogenic potential, in vitro chromosomal aberration assay [10]: not found to possess elastogenic potential
phosphorylation of Syk kinase substrates and proteins downstream of Syk kinase [6]: inhibit phosporylation of various proteins downstream of Syk kinase
phosphorylation of proteins downstream of Syk kinase, but not LYN kinase, in the FcεRI signal transduction cascade [7]: inhibit phosphorylation of proteins downstream of Syk kinase, but not LYN kinase
Ames test, other tester strains [11]: not found to adversely affect any of the other 4 tester strains
Ames test, tester strain TA1537 [11]: positive

pIC50 [8]: 5.94
Compound: OCCCn1ncc2cc(Nc3ncc(F)c(Nc4ccc(Cl)c(Cl)c4)n3)ccc21 [Compound R935391]

Compound: Nc1cccc(Nc2ncc(F)c(Nc3cccc(N)c3)n2)c1 [Compound R921302]
NOAEL (no observed adverse effect level) ([12]; 14-day oral toxicity study): 100 mg/kg
tolerability, 100 mg/kg q.d. or b.i.d. ([12]; in vivo, po, 100 mg/kg): well tolerated
findings at 300 mg/kg ([12]; in vivo, po, 300 mg/kg): histopathological changes in the vulva
tolerability, 300 mg/kg q.d. or b.i.d. ([12]; in vivo, po, 300 mg/kg): not tolerated
tolerability, 1000 mg/kg ([12]; in vivo, po, 1000 mg/kg): not tolerated
tolerability, oral 1000 mg/kg ([12]; in vivo, po, 1000 mg/kg): tolerated
arthritis score ([13]; 300 mg/kg at disease onset, Day 16 to Day 28): significantly lower arthritis score
mean clinical scores compared with vehicle controls ([13]; 300 mg/kg/day from day of immunization, Days 10-28): significantly reduced
erosions and soft tissue swelling ([13]; 300 mg/kg/day, prophylactically or after disease onset): precluded the development of erosions and reduced soft tissue swelling
Blinded radiographic scores (scale 0-6) ([13]; once daily 150 mg/kg/day, prevention regimen): 2.4±0.006
Blinded radiographic scores (scale 0-6) ([13]; once daily 300 mg/kg/day at onset of disease): 0.45±0.031
Blinded radiographic scores (scale 0-6) ([13]; once daily 300 mg/kg/day, prevention regimen): 0.13 ±0.000001
serum anti-collagen II antibody ([13]; data not shown): marked reduction
Ames test, other tester strains [11]: not found to adversely affect any of the other 3 tester strains
Ames test, tester strain TA98 ([11]; with S9): positive
Ames test, tester strain TA1537 [11]: positive
